The values that follow come from US20230043518A1, “CANCER IMMUNOTHERAPY” (AXELIA ONCOLOGY PTY LTD, priority 2019, published 2023).

Molecules are shown by their SMILES.

This data set has as its system 4T1.2 (breast cancer). In words: 4T1.2 breast cancer metastasis model. In kind it is in vivo, mouse. To be noted: compound 1 combined with anti-PD1 (data not shown). The method, then: C57BL/6 or Balb/c Wild-type (WT) mice were purchased from Walter and Eliza Hall Institute for Medical Research or bred in house and maintained at the QIMR Berghofer Medical Research Institute. Mice greater than 8 weeks of age were sex-matched to the appropriate models. In all studies, no mice were excluded based on pre-established criteria and randomization was applied immediately prior to treatment in therapy experiments. Experiments were conducted as approved by the QIMR Berghofer Medical Research Institute Animal Ethics Committee.
Mouse B16F10 (melanoma), MC38 (colon adenocarcinoma) and 4T1.2 (breast cancer) cells were grown in Dulbecco's Modified Eagle Medium (DMEM) supplemented with 10% Fetal Calf Serum (Bovogen), 1% Glutamine (Gibco), and 1% Penicillin/Streptomycin (Gibco). B16F10 and 4T1.2 cells were maintained at 37° C., 5% CO2. MC38 cells were maintained at 37° C., 10% CO2. All cell lines were routinely tested negative for Mycoplasma, but cell line authentication was not routinely performed.
5×10^4 4T1.2 cells were injected into the 4th mammary fat pad in a volume of 50 μl (day 0). On day 12 after injection, primary tumours were surgically removed under isoflurane anesthesia. Mice were injected treated as indicated in figure legends on day 15, 18 and 21 after tumour cell injection. […] For this, macroscopic visible lung metastases were counted. […]

Take `CCCCCCCCCCCCCCCC(=O)OCC(CSCC(N)C(=O)N[C@@H](CO)C(=O)NCCOCCOCCOCCOCCOCCOCCOCCOCCOCCOCCOCCOCCC(=O)NCC(N)=O)OC(=O)CCCCCCCCCCCCCCC` (stereo partly shown) [compound 1]: the weight loss entry was “without affecting weight loss”.
